Reference: US11142548B2, “Agents that activate CD47 and their use in the treatment of inflammation” (SORBONNE UNIVERSITE, priority 2016, dated 2021)
Non-standard residues stand in square brackets, D forms with d. Residues, ends and D or L forms follow the SMILES beside them. NMeR = CN[C@@H](CCCNC(=N)N)C(=O)O; Nle = CCCC[C@H](N)C(=O)O

Experiments:
[1] = test system: recruited monocyte-derived inflammatory macrophages (recMφ); assay: Thioglycollate-induced peritonitis; type: in vivo, mouse; settings: single intra-peritoneal injection at day 1, observed at day 2
Description: Mouse peritoneal exudate cells (PECs) were elicited by i.p. injection of 0,5 ml 3% thioglycollate (T9032, Sigma) into 10 weeks old male C57BL/6J and Cd47^−/− mice. After 1 day, PECs were isolated by flushing of the peritoneum with ice-cold PBS, Mφs were negatively selected by magnetic sorting following the manufacturers protocol (EasySep Mouse Monocyte Enrichment Kit, Stemcell Technologies), resuspended in X-VIVO 15 medium (Lonza), and plated in Lab-Tek® Chamber Slide™ (Nunc®).
To test whether CD47 influences inflammation resolution in other pathological contexts, a model of acute thioglycollate-induced peritonitis was used, characterized by an early accumulation of neutrophils, followed by recruited monocyte-derived inflammatory macrophages (recMφ), both experiencing an apoptosis-driven elimination at different kinetics (Gautier et al., Blood. 2013, 122:2714-2722).

[2] = test system: human monocytes; assay: Monocyte/RPE co-culture, monocyte number; type: cell-based; settings: for number of PU1+ Mos, dose response: HTRA1-activated co-cultures, dose dependently
Text: In accordance with the Declaration of Helsinki, volunteers provided written and informed consent for the human monocyte expression studies, which were approved by the Centre national d'ophthalmologic des Quinze-Vinet hospital (Paris, France) ethics committees (no. 913572). PBMCs were isolated from heparinized venous blood from healthy volunteer individuals by 1-step centrifugation on a Ficoll Paque layer (GE Healthcare) and sorted with EasySep Human Monocyte Enrichment Cocktail without CD16 Depletion Kit (StemCells Technology). Mouse peritoneal macrophages, bone marrow-derived monocytes and photoreceptor outer segment (POS) isolation (all in serum-free X-Vivo 15 medium) were performed as previously described (Sennlaub et al, EMBO Mol Med. 2013, 5:1775-1793). For co-culture experiments the mononuclear monocytes were either stained using CellTrace™ CFSE (Life Technologies®) and then washed three times or they were identified by PU1 immunohistochemistry, a MP-specific transcription factor not expressed in RPE.
(§1) Fresh pig eyes were obtained from the slaughter house 2-3 hours after enucleation. They were cleaned of surrounding tissue and immersed briefly in antiseptic solution (Pursept®). The anterior part of the eye was removed, as the lens, vitreous and vitreous. The posterior segments were washed 2 times with PBS (Phosphate Buffered Saline) and then incubated at 37° C. in the presence of 0.25% trypsin, to detach the RPE cells. After 1 h incubation, the trypsin solution was removed and the cells recovered in Dulbecco's Modified Eagle's Medium (DMEM) supplemented with 20% fetal calf serum (FCS) decomplemented and in the presence of antibiotics (1% penicillin/Streptomycin). The cells were washed several times and then incubated at 37° C. in culture dishes. Three days after the culturing, these cells were again incubated with by 0.25% trypsin, washed, and seeded into 48 wells culture plates (Grenier®) at a density of 150,000 cells/culture well (300,000 cells/[…] or 500 μL/well). Cell confluence was obtained after 4 days of incubation at 37° C. with optimum cell characteristics (squamous cells, well pigmented). To avoid the aging of these primary cell cultures, all the experiments were conducted between the 5th and 7th day after seeding the culture plates.
The culture medium of RPE cells was changed the day before the co-culture with DMEM without FCS (DMEM+1% Penicillin/Streptomycin only). Monocytes were plated onto the wells in the presence or absence of RPE cells at a concentration of 200,000 cells/culture well in a 48-well plate.
Part of co-culture well was brought into contact with 1 ng/ml of Lipopolysaccharide (LPS) from E. coli or recombinant HTRA1 (R & D, 5 μg/ml), to simulate a systemic inflammatory activation (LPS) or microenvironment similar to AMD (increase HTRA1) (see above). […]
RPE cells were permeabilized, after washing PAF 4%, with a solution of PBS-0.1% Triton-Citrate 0.1%. Nonspecific immunogenic sites were blocked with PBS-0.1% Triton-5% horse serum. After 1 hour, the blocking solution was removed and the cells were placed in presence of the with the primary antibodies (polyclonal rabbit anti-human PU.1, 1/200, LifeTechnologies; polyclonal goat anti-human OTX2, 1/500, R&D) diluted in PBS triton 0.1% and 1% horse serum and incubated at 4° C. for 12 h. After three washes with PBS, the secondary antibody coupled to a fluorochrome and diluted in PBS-0.1% Triton-1% horse serum was added along with DAPI (nuclear staining) and left for 1 hour at temperature ambient and then washed several times with PBS.
25 fields per well were analyzed Arrayscan® then the number of cells for each culture condition was counted directly by a computer protocol. All nuclei were labeled with DAPI, monocytes were marked in green 488 nm (CellTrace™ CFSE) or and RPE cells in far red 647 nm (recognition of anti-OTX2 primary antibody). […]

[3] = test system: subretinal IBA-1+ MPs; assay: Laser-injury model in Cx3cr1GFP/GFP mice; type: in vivo, mouse; settings: 2 μl intravitreal at day 4 and day 7, day 10, vs PBS or 4NGG
Description: (§2) Laser-coagulations were performed with a 532 nm ophtalmological laser mounted on an operating microscope (Vitra Laser, 532 nm, 450 mW, 50 ms, and 250 μm): Intravitreal injections of 2 μl of HTRA1 and/or TSP1 were performed using glass capillaries (Eppendorf) and a micro injector. The 2 μl injection solution contained 50 μg/ml TSP1 and HTRA1, corresponding to an intraocular concentration of 5 μg/ml of each protein assuming their dilution by approximately 1/10th in the intra-ocular volume. […] A volume of 2 μl of a 100 μM solution of either PBS, recombinant TSP1 (10 μg/ml), the 4NGG control peptide or the CD47-activating peptide PKT16 (200 μM) was injected at day 4 (when MP infiltration is maximal) and day 7 after the injury and evaluated subretinal inflammation on flatmounted RPE/choroidal flatmounts at day 10.
(§3) Eyes were enucleated, fixed in 4% PFA 30 minutes and sectioned at the limbus; the cornea and lens were discarded. […] Choroids and retinas were flatmounted and viewed with a fluorescence microscope DM5500B (Leica). IBA-1+ cells were counted on whole RPE/choroidal flatmounts and on the outer segment side of the retina. […]

[4] = test system: porcine RPE; assay: Monocyte/RPE co-culture, RPE cell number (OTX2+ nuclei); type: cell-based; settings: for number/survival of RPE cells in co-culture: HTRA1 5 μg/mL, OTX2 nuclear marker
Description: as §1
The culture medium of RPE cells was changed the day before the co-culture with DMEM without FCS (DMEM+1% Penicillin/Streptomycin only). Monocytes were plated onto the wells in the presence or absence of RPE cells at a concentration of 200,000 cells/culture well in a 48-well plate. […]
25 fields per well were analyzed Arrayscan® then the number of cells for each culture condition was counted directly by a computer protocol. […] For graphs where quantifications from several plates were pooled (FIGS. 4D and E) results were expressed as the percentage of the number of PU.1 or OTX2 positive cells normalized with the HTRA1 treated condition. […]

[5] = test system: subretinal IBA-1+ mononuclear monocytes; assay: Laser-induced subretinal inflammation in wildtype- and Tsp1-/- mice; type: in vivo, mouse; settings: wildtype mice, intravitreal injection at d3, quantification at d7
Description: as §2, §3

[6] = biological target: T1, HTRA1 (Homo sapiens, UniProt Q92743); assay: Co-incubation of recombinant TSP1 or TSP2 with recombinant HTRA1 (Coomassie staining, Western blot); type: biochemical; settings: co-incubation at 37° C. for 24 h, Coomassie gel
T1 construct: purchased R & D
T1 sequence (Q92743 23-480): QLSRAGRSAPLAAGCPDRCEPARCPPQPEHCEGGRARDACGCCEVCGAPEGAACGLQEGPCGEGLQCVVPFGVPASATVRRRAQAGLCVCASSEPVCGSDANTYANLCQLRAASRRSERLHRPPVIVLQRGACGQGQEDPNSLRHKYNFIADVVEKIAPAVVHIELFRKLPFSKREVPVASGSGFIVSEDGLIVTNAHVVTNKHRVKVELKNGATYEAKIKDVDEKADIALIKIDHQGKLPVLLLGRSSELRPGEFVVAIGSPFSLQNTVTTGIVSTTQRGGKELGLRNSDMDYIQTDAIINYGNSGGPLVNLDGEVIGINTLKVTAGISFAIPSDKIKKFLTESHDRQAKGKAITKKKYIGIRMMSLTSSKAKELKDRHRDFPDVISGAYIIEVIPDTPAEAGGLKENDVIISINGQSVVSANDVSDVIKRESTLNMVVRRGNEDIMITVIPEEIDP
Description: WB analysis was performed using a monoclonal anti-TSP1 antibody (Abeam), as previously described (Houssier et al., PLoS Med. 2008, 5:e39). RT-PCRs primers were ordered from Taqman, reference: Hs01016151_m1.
Western blot analysis of the proteins confirmed the disappearance of the whole sized TSP1 and the appearance of several smaller bands in the co-incubated condition (FIG. 3A). […] Next the functionality of rTSP1 and HTRA1-digested TSP1 was analyzed in laser-induced subretinal inflammation in vivo. […] Accordingly, associated choroidal neovascularization, measured as the surface covered by CD102^−CNV on choroidal flatmounts at d7, underwent the same differences (FIG. 3D).

CSCC[C@H](NC(=O)[C@@H](NC(=O)[C@@H](NC(=O)[C@H](Cc1ccc(O)cc1)NC(=O)[C@H](Cc1ccccc1)NC(=O)[C@H](CCCNC(=N)N)NC(=O)[C@H](N)CCCCN)C(C)C)C(C)C)C(=O)N[C@@H](Cc1c[nH]c2ccccc12)C(=O)N[C@@H](CCCCN)C(=O)N[C@H](CCCCN)C(=O)O [PKHB1, (D)K-R-F-Y-V-V-M-W-K-(D)K]
elimination of recMφs [1]: significantly accelerated the elimination

KRFYVVMWKK (4N1K peptide) [reference compound]
number of PU1+ Mos, dose response ([2]; 48 h): diminished the number of Mos

CCCC[C@H](NC(=O)[C@@H](NC(=O)[C@@H](NC(=O)[C@H](Cc1ccc(O)cc1)NC(=O)[C@H](Cc1ccccc1)NC(=O)[C@H](CCCNC(=N)N)N(C)C(=O)[C@H](N)CCCCN)C(C)C)C(C)C)C(=O)N[C@@H](Cc1c[nH]c2ccccc12)C(=O)N[C@@H](CCCCN)C(=O)N[C@H](CCCCN)C(=O)O [PKT16, (D)K-(NMeR)-F-Y-V-V-Nle-W-K-(D)K] (H-[dK][NMeR]FYVV[Nle]WK[dK]-OH)
number of PU1+ Mos, dose response ([2]; 48 h): diminished the number of Mos | CFSE+ monocytes number in HTRA1 treated co-culture ([2]; peptide 100 μM added directly, HTRA1 5 μg/mL, 24 h): completely reversed | elimination of subretinal IBA-1+ MPs adjacent to the laser impact [3]: eliminated significantly more efficiently | toxicity to RPE cells (number of OTX2+ nuclei) ([4]; HTRA1 treated co-culture with peptide): No toxicity

rHTRA1: recombinant HTRA1 (R & D), high-temperature requirement A serine peptidase 1
monocytes survival in co-culture ([2]; HTRA1 5 μg/mL): significantly increased | hMos number relative to control conditions ([2]; HTRA1 5 μg/mL added to co-culture, 24 h): 3 to 4 times | effect of HTRA1 on Mo number after heat-inactivation ([2]; heat-inactivated HTRA1 (not shown)): abolished its effect | laser-induced subretinal inflammation in wildtype mice [5]: aggravates | number/survival of RPE cells in co-culture ([4]; listed as HTRA1): did not influence survival | number/survival of RPE cells in co-culture ([4]; listed as Recombinant HTRA1): did not diminish significantly

recombinant TSP2: recombinant TSP2, contains one VVM site, resistant to HTRA1
degradation by recombinant HTRA1 [6]: no such degradation

4N1K-GGGGGGGG-4N1K (KRFYVVMWKKGGGGGGGGKRFYVVMWKK) [d4N1K]
Mo elimination compared with 4N1K ([2]; HTRA1-activated co-cultures, 0, 4, 20 and 50 μM, 48 h): significantly more effective
